From ChEMBL document CHEMBL4808173, “Discovery of Novel Benzimidazole and Indazole Analogues as Tubulin Polymerization Inhibitors with Potent Anticancer Activities” (J Med Chem, 2021)
The source made the active and inactive calls. The rule behind the calls is not given here.

Legend:
A2780/Taxol [1] = assay: Antiproliferative activity against human A2780T cells assessed as reduction in cell viability measured after 48 hrs by MTT assay; assay type: functional, cell-based
B16-F10 [2] = assay: Antitumor activity against mouse B16-F10 cells inoculated in BALB/c mouse assessed as tumor growth inhibition at 10 mg/kg, ip qd for 14 days by caliper method relative to control; assay type: functional; settings: 336 h, time 14 day, read-out: TGI
A2780/Taxol [3] = assay: Inhibition of colony formation in human A2780T cells assessed as decrease in colonies at 100 nM measured after 24 hrs by photographic imaging analysis; assay type: functional, cell-based
[4] = Resistance index, ratio of IC50 for antiproliferative activity against human A2780T cells assessed as reduction in cell viability measured after 48 hrs by MTT assay to IC50 for antiproliferative activity against human A2780S cells assessed as reduction in cell viability measured after 48 hrs by MTT assay; assay type: functional
A2780S = assay: Antiproliferative activity against human A2780S cells assessed as reduction in cell viability measured after 48 hrs by MTT assay; assay type: functional, cell-based
B16-F10 [5] = assay: Antitumor activity against mouse B16-F10 cells inoculated in BALB/c mouse assessed as tumor growth inhibition at 15 mg/kg, ip qd for 14 days by caliper method relative to control; assay type: functional; settings: 336 h, time 14 day, read-out: TGI
B16-F10 [6] = assay: Antimigratory activity in mouse B16-F10 cells assessed as inhibition of cell migration measured after 24 hrs; assay type: functional, cell-based; settings: dose 5-20 nM
MCF7 [7] = assay: Cell cycle analysis in human MCF7 cells assessed as accumulation at G2 phase at 10 nM measured after 48 hrs by RnaseA/propidium iodide staining based flow cytometry (reference value: 17.03 %); assay type: functional
MCF7 [8] = assay: Antiproliferative activity against human MCF7 cells assessed as reduction in cell viability measured after 48 hrs by MTT assay; assay type: functional, cell-based; settings: for IC50: MCF7, 48 h
MCF7 [9] = assay: Cell cycle analysis in human MCF7 cells assessed as accumulation at S phase at 10 nM measured after 48 hrs by RnaseA/propidium iodide staining based flow cytometry (reference value: 27.46 %); assay type: functional
MCF7 [10] = assay: Induction of apoptosis in human MCF7 cells assessed as late apoptotic cells at 20 nM measured after 48 hrs by annexinV-FITC/propidium iodide staining based flow cytometry (reference value: 5.99 %); assay type: functional
[11] = Acute toxicity in BALB/c mouse inoculated with mouse B16-F10 cells assessed as effect on body weight at 15 mg/kg, ip qd for 14 days; assay type: organism-based; settings: in vivo, 336 h, time 14 day
MCF7 [12] = assay: Cell cycle analysis in human MCF7 cells assessed as accumulation at G1 phase at 10 nM measured after 48 hrs by RnaseA/propidium iodide staining based flow cytometry (reference value: 53.68 %); assay type: functional
MCF7 [13] = assay: Induction of apoptosis in human MCF7 cells assessed as necrotic cells at 20 nM measured after 48 hrs by annexinV-FITC/propidium iodide staining based flow cytometry (reference value: 2.62 %); assay type: functional
MCF7 [14] = assay: Cell cycle analysis in human MCF7 cells assessed as accumulation at S phase at 5 nM measured after 48 hrs by RnaseA/propidium iodide staining based flow cytometry (reference value: 27.46 %); assay type: functional
B16-F10 [15] = assay: Antimigratory activity in mouse B16-F10 cells assessed as inhibition of cell migration by measuring wound closure at 20 nM measured after 24 hrs (reference value: 51.92 +/- 2.02 %); assay type: functional; parameters: scale not given: the % may be the effect or the level left
A549 = assay: Antiproliferative activity against human A549 cells assessed as reduction in cell viability measured after 48 hrs by MTT assay; assay type: functional, cell-based; settings: for IC50: A549, 48 h
MCF7 [16] = assay: Induction of apoptosis in human MCF7 cells assessed as late apoptotic cells at 10 nM measured after 48 hrs by annexinV-FITC/propidium iodide staining based flow cytometry (reference value: 5.99 %); assay type: functional
[17] = Acute toxicity in BALB/c mouse inoculated with mouse B16-F10 cells assessed as effect on kidney at 15 to 30 mg/kg, ip qd for 14 days by hematoxylin and eosin staining based analysis; assay type: organism-based; settings: in vivo, 336 h, dose 15-30 mg/kg, time 14 day
MCF7 [18] = assay: Induction of apoptosis in human MCF7 cells assessed as live cells at 5 nM measured after 48 hrs by annexinV-FITC/propidium iodide staining based flow cytometry (reference value: 88.5 %); assay type: functional
MCF7 [19] = assay: Cell cycle analysis in human MCF7 cells assessed as accumulation at G1 phase at 5 nM measured after 48 hrs by RnaseA/propidium iodide staining based flow cytometry (reference value: 53.68 %); assay type: functional
MCF7 [20] = assay: Induction of apoptosis in human MCF7 cells assessed as early apoptotic cells at 5 nM measured after 48 hrs by annexinV-FITC/propidium iodide staining based flow cytometry (reference value: 1.89 %); assay type: functional
MCF7 [21] = assay: Induction of apoptosis in human MCF7 cells assessed as early apoptotic cells at 20 nM measured after 48 hrs by annexinV-FITC/propidium iodide staining based flow cytometry (reference value: 1.89 %); assay type: functional
MCF7 [22] = assay: Induction of apoptosis in human MCF7 cells assessed as live cells at 10 nM measured after 48 hrs by annexinV-FITC/propidium iodide staining based flow cytometry (reference value: 88.5 %); assay type: functional
MCF7 [23] = assay: Cell cycle analysis in human MCF7 cells assessed as accumulation at G2 phase at 20 nM measured after 48 hrs by RnaseA/propidium iodide staining based flow cytometry (reference value: 17.03 %); assay type: functional
MCF7 [24] = assay: Cell cycle analysis in human MCF7 cells assessed as accumulation at G1 phase at 20 nM measured after 48 hrs by RnaseA/propidium iodide staining based flow cytometry (reference value: 53.68 %); assay type: functional
MCF7 [25] = assay: Inhibition of colony formation in human MCF7 cells assessed as decrease in colonies measured after 24 hrs by photographic imaging analysis; assay type: functional, cell-based; settings: dose 0.05-5 µM
B16-F10 [26] = assay: Antimigratory activity in mouse B16-F10 cells assessed as inhibition of cell migration by measuring wound closure at 10 nM measured after 24 hrs (reference value: 51.92 +/- 2.02 %); assay type: functional; parameters: scale not given: the % may be the effect or the level left
B16-F10 [27] = assay: Antimigratory activity in mouse B16-F10 cells assessed as inhibition of cell migration by measuring wound closure at 5 nM measured after 24 hrs (reference value: 51.92 +/- 2.02 %); assay type: functional; parameters: scale not given: the % may be the effect or the level left
MCF7 [28] = assay: Cell cycle analysis in human MCF7 cells assessed as accumulation at G2 phase at 5 nM measured after 48 hrs by RnaseA/propidium iodide staining based flow cytometry (reference value: 17.03 %); assay type: functional
MCF7 [29] = assay: Induction of apoptosis in human MCF7 cells assessed as necrotic cells at 5 nM measured after 48 hrs by annexinV-FITC/propidium iodide staining based flow cytometry (reference value: 2.62 %); assay type: functional
B16-F10 [30] = assay: Antiproliferative activity against mouse B16-F10 cells assessed as reduction in cell viability measured after 48 hrs by MTT assay; assay type: functional, cell-based; settings: for IC50: B16-F10, 48 h
MCF7 [31] = assay: Induction of apoptosis in human MCF7 cells assessed as necrotic cells at 10 nM measured after 48 hrs by annexinV-FITC/propidium iodide staining based flow cytometry (reference value: 2.62 %); assay type: functional
[32] = Acute toxicity in BALB/c mouse inoculated with mouse B16-F10 cells assessed as effect on liver at 15 to 30 mg/kg, ip qd for 14 days by hematoxylin and eosin staining based analysis; assay type: organism-based; settings: in vivo, 336 h, dose 15-30 mg/kg, time 14 day
MCF7 [33] = assay: Induction of apoptosis in human MCF7 cells assessed as late apoptotic cells at 5 nM measured after 48 hrs by annexinV-FITC/propidium iodide staining based flow cytometry (reference value: 5.99 %); assay type: functional
MCF7 [34] = assay: Induction of apoptosis in human MCF7 cells assessed as early apoptotic cells at 10 nM measured after 48 hrs by annexinV-FITC/propidium iodide staining based flow cytometry (reference value: 1.89 %); assay type: functional
MCF7 [35] = assay: Cell cycle analysis in human MCF7 cells assessed as accumulation at S phase at 20 nM measured after 48 hrs by RnaseA/propidium iodide staining based flow cytometry (reference value: 27.46 %); assay type: functional
B16-F10 [36] = assay: Disruption of microtubule network in mouse […] cells measured after 6 hrs by DAPI staining based immunofluorescence microscopic assay; assay type: cell-based; settings: dose 10-40 nM
MCF7 [37] = assay: Induction of apoptosis in human MCF7 cells assessed as live cells at 20 nM measured after 48 hrs by annexinV-FITC/propidium iodide staining based flow cytometry (reference value: 88.5 %); assay type: functional
B16-F10 [38] = assay: Antitumor activity against mouse B16-F10 cells inoculated in BALB/c mouse assessed as tumor growth inhibition at 30 mg/kg, ip qd for 14 days by caliper method relative to control; assay type: functional; settings: 336 h, time 14 day, read-out: TGI
[39] = Binding affinity to immobilized pig brain tubulin assessed as equilibrium dissociation constant by SPR assay; assay type: tissue-based, Sus scrofa
HeLa = assay: Antiproliferative activity against human HeLa cells assessed as reduction in cell viability measured after 48 hrs by MTT assay; assay type: functional, cell-based
A2780/Taxol [40] = assay: Inhibition of colony formation in human A2780T cells assessed as decrease in colonies measured after 24 hrs by photographic imaging analysis; assay type: functional, cell-based; settings: dose 10-100 nM
Sus scrofa = species: Sus scrofa; assay: (§1) Inhibition of pig brain tubulin polymerization by spectrophotometric method; assay type: tissue-based
[41] = as §1; assay type: tissue-based, Sus scrofa

CC(=O)O[C@H]1C(=O)[C@@]2(C)[C@H]([C@H](OC(=O)c3ccccc3)[C@]3(O)C[C@H](OC(=O)[C@H](O)[C@@H](NC(=O)c4ccccc4)c4ccccc4)C(C)=C1C3(C)C)[C@]1(OC(C)=O)CO[C@@H]1C[C@@H]2O [PACLITAXEL]
IC50 (A2780/Taxol [1]): 3160 nM
inhibition in vivo at 10 mg/kg (B16-F10 [2]): 88.7%
inhibition (A2780/Taxol [3]): inactive
Ratio IC50 [4]: 421.8
IC50 (A2780S): 7.5 nM

COc1cc(-c2cccc3[nH]c(-c4cccc5c4ccn5C)nc23)cc(OC)c1OC
inhibition in vivo at 15 mg/kg (B16-F10 [5]): 78.7%
inhibition (B16-F10 [6]): Dose-Dependent Effect
Activity (MCF7 [7]): 62.8%
Activity (MCF7 [8]): Dose-Dependent Effect
IC50 (MCF7 [8]): 18 nM
Activity (MCF7 [9]): 22.93%
Activity (MCF7 [10]): 34.3%
IC50 (A2780/Taxol [1]): 9.7 nM
Activity [11]: Non-Toxic
Activity (MCF7 [12]): 13.1%
Activity (MCF7 [13]): 2.14%
Activity (MCF7 [14]): 23.09%
Activity (B16-F10 [15]): 6.6%
Activity (A549): Dose-Dependent Effect
IC50 (A549): 85 nM
Activity (MCF7 [16]): 28.4%
Activity [17]: Non-Toxic
Activity (MCF7 [18]): 83.7%
Activity (MCF7 [19]): 62.06%
Activity (MCF7 [20]): 2.98%
Activity (MCF7 [21]): 4.69%
Activity (MCF7 [22]): 84.4%
Activity (MCF7 [23]): 62.16%
Activity (MCF7 [24]): 17.16%
inhibition (MCF7 [25]): Dose-Dependent Effect
Activity (B16-F10 [26]): 15.68%
Activity (B16-F10 [27]): 29.42%
Activity (MCF7 [28]): 13.41%
Activity (MCF7 [29]): 4.26%
Activity (B16-F10 [30]): Dose-Dependent Effect
IC50 (B16-F10 [30]): 29 nM
Ratio IC50 [4]: 1.6
Activity (MCF7 [31]): 2.12%
Activity [32]: Non-Toxic
Activity (MCF7 [33]): 9.04%
Activity (MCF7 [34]): 5.12%
Activity (MCF7 [35]): 19.63%
Activity (B16-F10 [36]): Dose-Dependent Effect
Activity (MCF7 [37]): 58.9%
inhibition in vivo at 30 mg/kg (B16-F10 [38]): 84.3%
Kd [39]: 12.7 µM
IC50 (A2780S): 6.2 nM
Activity (HeLa): Dose-Dependent Effect
IC50 (HeLa): 68 nM
inhibition (A2780/Taxol [40]): Dose-Dependent Effect
inhibition (Sus scrofa): Dose-Dependent Effect
IC50 [41]: 2520 nM

COc1cc2c(c(OC)c1OC)-c1ccc(OC)c(=O)cc1[C@@H](NC(C)=O)CC2 [COLCHICINE]
IC50 (MCF7 [8]): 21 nM
IC50 (A2780/Taxol [1]): 784 nM
IC50 (B16-F10 [30]): 83 nM
IC50 (A2780S): 16.7 nM
IC50 (HeLa): 83 nM

COc1cc(-c2nccn3c(-c4ccc5c(ccn5C)c4)cnc23)cc(OC)c1OC
IC50 (MCF7 [8]): > 10000 nM
IC50 (A549): > 10000 nM
IC50 (B16-F10 [30]): > 10000 nM
IC50 (HeLa): > 10000 nM

COc1cc(-c2n[nH]c3ccc(-c4ccc(C)cc4)cc23)cc(OC)c1OC
IC50 (MCF7 [8]): 43 nM
IC50 (A549): 531 nM
IC50 (B16-F10 [30]): 54 nM
IC50 (HeLa): 265 nM
